Assay results: patent US10471154B2, “Spirocyclic indolone polyethylene glycol carbonate compound, composition, preparation method and use thereof” (priority 2016, dated 2019)
Converted amounts (≈) assume the structure as drawn. Marks after values point to notes of the source that are not given here.

Tests used:
[1] = Body weights of SJSA-1 implanted nude mice (side effects); type: in vivo; settings: for Body Weights X ± SD (g), End: End (21 days after inoculation), doxorubicin 3.0 mg/kg i.p. x6, rac-SIP 30.0 mg/kg gavage x9, SIP-PEG compounds 30.0 mg/kg i.p. x9, rac-SIP-MPEG-2000 50.0 mg/kg i.p. x9; for body weight decreased, compared with the solvent control group: SIP-PEG compounds 30.0 mg/kg i.p. (MPEG-2000 50.0 mg/kg), SIP oral 30.0 mg/kg; for Body Weights X ± SD (g), Start: Start of administration, dose per group 3.0/30.0/50.0 mg/kg as in Table 1
Description: (§1) Tumor cells (SJSA-1) were harvested under aseptic conditions, and were adjusted to a cell density of 1×10^7 cells/ml with sterile physiological saline. 0.2 ml was inoculated under the skin of the axilla of nude mice, and the tumor was grown to have a diameter of 1 cm. The tumor was removed under aseptic conditions and cut into tumor masses with a size of 2.0 mm×2.0 mm, and evenly inoculated under the skin of the axilla of the nude mice. When the tumor volume reached about 250 mm^3 (8 days after inoculation), the animals were administered in groups with 9 mice in each group, and the animals with poor tumor growth were excluded. The control group used physiological saline as a control. […] Body weight was weighted 3 times a week, and the length a and the width b of the tumor were measured with a vernier caliper, and the volume of the tumor was calculated according to the formula V=a×b^2/2, where a is the length of the tumor and b is the width of the tumor. 21 Days after the inoculation, the nude mice were dislocated and photographed, and then the tumor was peeled off, weighed and photographed. RTV (relative tumor volume) and tumor inhibition rate were calculated. At the same time, the peripheral blood of nude mice was taken to count blood cells.
(§2) The data were processed by EXCEL software and expressed by Mean±SD, and the inter-group analysis was statistically processed using t test.

physchem = settings: 25 °C, water, thermodynamic from solid
SJSA-1 xenografted tumor = test: Inhibitory effect on the growth of SJSA-1 xenografted tumor in nude mice; type: in vivo; settings: for Tumor volumes X ± SD (mm^3), End: End (21 days after inoculation), doxorubicin 3.0 mg/kg i.p. x6, rac-SIP 30.0 mg/kg gavage x9, SIP-PEG compounds 30.0 mg/kg i.p. x9, rac-SIP-MPEG-2000 50.0 mg/kg i.p. x9; for Tumor volumes X ± SD (mm^3), Start: Start of administration (8 days after inoculation); for Weights of Tumor X ± SD: tumor peeled off 21 days after inoculation; for Weights of Tumor X ± SD / Inhibition rate (%) on the basis of tumor volume / Inhibition rate (%) on the basis of tumor weight: doses and routes as in E5; for Inhibition rate (%) on the basis of tumor volume / Inhibition rate (%) on the basis of tumor weight: vs saline control; for Inhibition rate (%) on the basis of tumor volume: End; for inhibitory effect on tumor growth compared with PEG-free rac-SIP given by gastrointestinal administration: administered by injection, 30.0 mg/kg (rac-SIP-MPEG-2000 50.0 mg/kg)
Description: 72 Female Balb/c/nu nude mice (weighting 15-19 g) were provided by Beijing Huafukang BioScience Co., Inc. Certificate No.: SOCK (Beijing) 2014-0004.
(§3) Doxorubicin: prepared in sterile physiological saline at a concentration of 0.3 mg/ml; the administration dosage was 3.0 mg/kg; and the administration volume was 10 ml/kg.
(§4) rac-SIP: prepared in a solvent consisting of 4% DMA, 30% PEG400, and 66% (by volume) sterile distilled water to a solution with a concentration of 1.5 mg/ml; the administration dosage was 30.0 mg/kg, and the administration volume was 20 ml/kg.
(§5) rac-SIP-PEG-2: prepared in a solvent consisting of polyoxyethylene castor oil:95% ethanol:sterile physiological saline (1.5:1.5:7 by volume) to drug solutions with concentrations of 1.5 mg/ml and 3.0 mg/ml. The administration dosages were 15.0 mg/kg and 30.0 mg/kg. The administration volume was 10 ml/kg.
(§6) rac-SIP-PEG-3: prepared in sterile physiological saline to a solution with a concentration of 3.0 mg/ml. The administration dose was 30.0 mg/kg. The administration volume was 10 ml/kg.
(§7) chiral-R-SIP-PEG-3: prepared in sterile physiological saline to a solution with a concentration of 3.0 mg/ml. The administration dose was 30.0 mg/kg. The administration volume was 10 ml/kg.
(§8) rac-SIP-PEG-7: prepared in sterile physiological saline to a solution with a concentration of 3.0 mg/ml. The administration dose was 30.0 mg/kg. The administration volume was 10 ml/kg.
(§9) The administration dose was 50.0 mg/kg. The administration volume was 10 ml/kg.
Doxorubicin: at a dose of 3.0 mg/kg, administered intraperitoneally, once every other day, for a total of 6 times.
rac-SIP: at a dose of 30.0 mg/kg, administered by gavage, once a day, 6 times a week, for a total of 9 times.
rac-SIP-PEG-2: at a dose of 30.0 mg/kg, administered intraperitoneally, once a day, 6 times a week, for a total of 9 times.
rac-SIP-PEG-3: at a dose of 30.0 mg/kg, administered intraperitoneally, once a day, 6 times a week, for a total of 9 times.
chiral-R-SIP-PEG-3: at a dose of 30.0 mg/kg, administered intraperitoneally, once a day, 6 times a week, for a total of 9 times.
rac-SIP-PEG-7: at a dose of 30.0 mg/kg, administered intraperitoneally, once a day, 6 times a week, for a total of 9 times.
as §1, §2

[2] = Drug preparation: dissolving in physiological saline; type: physicochemical; settings: 3.0 mg/ml (Example 14: 5.0 mg/ml) in sterile physiological saline
Description: as §3, §4, §5, §6, §7, §8, §9

Molecule	Body Weights X ± SD (g), End [1] [g]	body weight decreased, compared with the solvent control group [1]	Body Weights X ± SD (g), Start [1] [g]	solubility at 24 h (physchem) [µg/mL]	Tumor volumes X ± SD (mm^3), End (SJSA-1 xenografted tumor)	Tumor volumes X ± SD (mm^3), Start (SJSA-1 xenografted tumor) [mm^3]	Weights of Tumor X ± SD (SJSA-1 xenografted tumor) [g]	Inhibition rate (%) on the basis of tumor volume (SJSA-1 xenografted tumor) [%]	Inhibition rate (%) on the basis of tumor weight (SJSA-1 xenografted tumor) [%]	inhibitory effect on tumor growth compared with PEG-free rac-SIP given by gastrointestinal administration (SJSA-1 xenografted tumor)	dissolving in physiological saline for administration [2]	body weight increased, compared with the solvent control group ([1]; 30.0 mg/kg i.p.)	Inhibition rate (%) on the basis of tumor volume (SJSA-1 xenografted tumor; listed as chiral-R-PEG-3) [%]
COc1cc(C(N)=O)ccc1NC(=O)[C@@H]1N[C@@H](CC(C)(C)C)C2(C(=O)Nc3cc(Cl)ccc32)[C@H]1c1cccc(Cl)c1F (mixture of isomers) [rac-SIP, rac-spiroindolinone pyrrolidinecarboxamide, reference compound]	14.1 ± 1.6	about 18%	17.1 ± 0.8	< 100	1273.7 ± 506.9*** mm^3	249.4 ± 59.5	1.37 ± 0.55	54.89	49.69	–	–	–	–
COCCOCCOC(=O)OC(C)OC(=O)c1ccc(NC(=O)[C@@H]2N[C@@H](CC(C)(C)C)[C@@]3(C(=O)Nc4cc(Cl)ccc43)[C@H]2c2cccc(Cl)c2F)c(OC)c1 (mixture of isomers) [rac-SIP-PEG-2, Rac-9-oxo-2,5,8,10-tetraoxadodecan-11-yl-4-((2′S,3R,4′S,5′R)-6-chloro-4′-(3-chloro-2-fluorophenyl)-2′-neopentyl-2-oxospiro[indoline-3,3′-pyrrolidine]-5′-carboxamido)-3-methoxybenzoate]	15.4 ± 1.0	about 9.4%	17.0 ± 1.1	> 400	1260.8 ± 597.6*** mm^3	242.6 ± 49.9	1.35 ± 0.64	55.36	50.55	slightly better inhibitory effect	–	–	–
COCCOCCOCCOC(=O)OC(C)OC(=O)c1ccc(NC(=O)[C@@H]2N[C@@H](CC(C)(C)C)[C@@]3(C(=O)Nc4cc(Cl)ccc43)[C@H]2c2cccc(Cl)c2F)c(OC)c1 (mixture of isomers) [rac-SIP-PEG-3, Rac-12-oxo-2,5,8,11,13-pentaoxapentadecan-14-yl-4-((2′S,3R,4′S,5′R)-6-chloro-4′-(3-chloro-2-fluorophenyl)-2′-neopentyl-2-oxospiro[indoline-3,3′-pyrrolidine]-5′-carboxamido)-3-methoxybenzoate]	15.9 ± 1.8	about 7.5%	17.2 ± 0.7	> 3000	260.1 ± 219.3*** mm^3	246.4 ± 23.6	0.20 ± 0.20	90.79	92.86	stronger inhibitory effect	could be directly dissolved in physiological saline	–	–
COCCOCCOCCOCCOCCOCCOCCOC(=O)OC(C)OC(=O)c1ccc(NC(=O)[C@@H]2N[C@@H](CC(C)(C)C)[C@@]3(C(=O)Nc4cc(Cl)ccc43)[C@H]2c2cccc(Cl)c2F)c(OC)c1 (mixture of isomers) [rac-SIP-PEG-7, Rac-24-oxo-2,5,8,11,14,17,20,23,25-nonoxaheptacosan-26-yl-4-((2′S,3R,4′S,5′R)-6-chloro-4′-(3-chloro-2-fluorophenyl)-2′-neopentyl-2-oxospiro[indoline-3,3′-pyrrolidine]-5′-carboxamido)-3-methoxybenzoate]	16.1 ± 1.6	about 6.4%	17.1 ± 0.7	30000 (≈ 29.3 mM)	93.2 ± 65.2*** mm^3	247.6 ± 57.4	0.08 ± 0.14	96.38	97.06	stronger inhibitory effect	could be directly dissolved in physiological saline	–	–
COc1cc(C(=O)O)ccc1NC(=O)[C@@H]1N[C@@H](CC(C)(C)C)[C@@]2(C(=O)Nc3cc(Cl)ccc32)[C@H]1c1cccc(Cl)c1F (racemic) [rac-SIP-acid, rac-4-((2′S,3′R,4′S,5′R)-6-chloro-4′-(3-chloro-2-fluorophenyl)-2′-neopentyl-2-oxospiro[indoline-3,3′-pyrrolidine]-5′-carboxamido)-3-methoxybenzoic acid, reference compound]	–	–	–	< 100	–	–	–	–	–	–	–	–	–
COCCOCCOCCOC(=O)OC(C)OC(=O)c1ccc(NC(=O)[C@@H]2N[C@@H](CC(C)(C)C)[C@@]3(C(=O)Nc4cc(Cl)ccc43)[C@H]2c2cccc(Cl)c2F)c(OC)c1 (single isomer, unassigned) [chiral-R-SIP-PEG-3]	19.2 ± 1.2	–	17.3 ± 0.9	> 8000	59.4 ± 46.3*** mm^3	252.9 ± 68.3	0.06 ± 0.05	97.90	97.84	stronger inhibitory effect	could be directly dissolved in physiological saline	about 11%	97.9
COc1cccc2c1C(=O)c1c(O)c3c(c(O)c1C2=O)C[C@@](O)(C(=O)CO)C[C@@H]3O[C@H]1C[C@H](N)[C@H](O)[C@H](C)O1 [Doxorubicin ADM, Doxorubicin, reference compound]	13.7 ± 0.7	–	17.4 ± 0.7	–	1401.1 ± 658.2*** mm^3	241.1 ± 46.6	1.41 ± 0.66	50.38	48.27	–	–	–	–
Rac-4-((2′S,3′R,4′S,5′R)-6-chloro-4′-(3-chloro-2-fluorophenyl)-2′-neopentyl-2-oxospiro[indoline-3,3′-pyrrolidine]-5′-carboxamido)-3-methoxybenzoic acid methoxy polyethylene glycol 2000 carbonate [rac-SIP-MPEG-2000]	16.3 ± 1.5	about 5.2%	17.4 ± 1.0	–	102.5 ± 58.5*** mm^3	251.3 ± 39.8	0.09 ± 0.09	96.02	96.70	stronger inhibitory effect	could be directly dissolved in physiological saline	–	–
